Literature values in US20070184110A1, “Dipyridamole extended-release formulations and process for preparing same” (priority 2006, published 2007).

Details: above a pH of 4

OCCN(CCO)c1nc(N2CCCCC2)c2nc(N(CCO)CCO)nc(N3CCCCC3)c2n1 [Dipyridamole, 2,6-bis-(diethanolamino)-4,8-dipiperidino-(5,4-d)-pyrimidine]
solubility in water: practically insoluble
